Numbers after ± are expanded uncertainties.
Assay: molar heat capacity at constant pressure
Conditions: 101.33 kPa, DSC

[Ag+].[Ag+].[S-2] [silver sulfide]
Conditions	molar heat capacity at constant pressure [J/K/mol]
770.82 K, Crystal 2	86.17 ± 3.4
771.82 K, Crystal 2	86.16 ± 3.4
772.82 K, Crystal 2	86.14 ± 3.4
773.82 K, Crystal 2	86.13 ± 3.4
774.82 K, Crystal 2	86.12 ± 3.4
775.82 K, Crystal 2	86.11 ± 3.4
776.82 K, Crystal 2	86.1 ± 3.4
777.82 K, Crystal 2	86.08 ± 3.4
778.82 K, Crystal 2	86.07 ± 3.4
779.82 K, Crystal 2	86.06 ± 3.4
780.82 K, Crystal 2	86.05 ± 3.4
781.82 K, Crystal 2	86.04 ± 3.4
782.82 K, Crystal 2	86.02 ± 3.4
783.82 K, Crystal 2	86.01 ± 3.4
784.82 K, Crystal 2	86 ± 3.4
785.82 K, Crystal 2	85.99 ± 3.4
786.82 K, Crystal 2	85.98 ± 3.4
787.82 K, Crystal 2	85.97 ± 3.4
788.82 K, Crystal 2	85.96 ± 3.4
789.82 K, Crystal 2	85.95 ± 3.4
790.82 K, Crystal 2	85.95 ± 3.4
791.82 K, Crystal 2	85.94 ± 3.4
792.82 K, Crystal 2	85.93 ± 3.4
793.82 K, Crystal 2	85.93 ± 3.4
794.82 K, Crystal 2	85.92 ± 3.4
795.82 K, Crystal 2	85.92 ± 3.4
796.82 K, Crystal 2	85.91 ± 3.4
797.82 K, Crystal 2	85.91 ± 3.4
798.82 K, Crystal 2	85.91 ± 3.4
799.82 K, Crystal 2	85.9 ± 3.4
800.82 K, Crystal 2	85.91 ± 3.4
801.82 K, Crystal 2	85.92 ± 3.4
802.82 K, Crystal 2	85.93 ± 3.4
803.82 K, Crystal 2	85.94 ± 3.4
804.82 K, Crystal 2	85.95 ± 3.4
805.82 K, Crystal 2	85.96 ± 3.4
806.82 K, Crystal 2	85.97 ± 3.4
807.82 K, Crystal 2	85.98 ± 3.4
808.82 K, Crystal 2	85.99 ± 3.4
809.82 K, Crystal 2	86 ± 3.4
810.82 K, Crystal 2	86.01 ± 3.4
811.82 K, Crystal 2	86.02 ± 3.4
812.82 K, Crystal 2	86.03 ± 3.4
813.82 K, Crystal 2	86.04 ± 3.4
814.82 K, Crystal 2	86.05 ± 3.4
815.82 K, Crystal 2	86.06 ± 3.4
816.82 K, Crystal 2	86.07 ± 3.4
817.82 K, Crystal 2	86.08 ± 3.4
818.82 K, Crystal 2	86.09 ± 3.4
819.82 K, Crystal 2	86.1 ± 3.4
820.82 K, Crystal 2	86.11 ± 3.4
821.82 K, Crystal 2	86.12 ± 3.4
822.82 K, Crystal 2	86.13 ± 3.4
823.82 K, Crystal 2	86.14 ± 3.4
824.82 K, Crystal 2	86.15 ± 3.4
825.82 K, Crystal 2	86.16 ± 3.4
826.82 K, Crystal 2	86.17 ± 3.4
827.82 K, Crystal 2	86.18 ± 3.4
828.82 K, Crystal 2	86.19 ± 3.4
829.82 K, Crystal 2	86.2 ± 3.4
830.82 K, Crystal 2	86.21 ± 3.4
831.82 K, Crystal 2	86.23 ± 3.4
832.82 K, Crystal 2	86.24 ± 3.4
833.82 K, Crystal 2	86.25 ± 3.4
834.82 K, Crystal 2	86.26 ± 3.4
835.82 K, Crystal 2	86.27 ± 3.4
836.82 K, Crystal 2	86.28 ± 3.4
837.82 K, Crystal 2	86.29 ± 3.4
838.82 K, Crystal 2	86.3 ± 3.5
839.82 K, Crystal 2	86.31 ± 3.5
840.82 K, Crystal 2	86.32 ± 3.5
841.82 K, Crystal 2	86.33 ± 3.5
842.82 K, Crystal 2	86.34 ± 3.5
843.82 K, Crystal 2	86.35 ± 3.5
844.82 K, Crystal 2	86.36 ± 3.5
845.82 K, Crystal 2	86.37 ± 3.5
846.82 K, Crystal 2	86.38 ± 3.5
847.82 K, Crystal 2	86.39 ± 3.5
848.82 K, Crystal 2	86.4 ± 3.5
849.82 K, Crystal 2	86.41 ± 3.5
866.21 K, Crystal 1	90.42 ± 3.6
867.21 K, Crystal 1	88.01 ± 3.5
868.11 K, Crystal 1	89.24 ± 3.5
869.11 K, Crystal 1	88.03 ± 3.5
870.11 K, Crystal 1	87.13 ± 3.5
871.11 K, Crystal 1	86.12 ± 3.4
872.11 K, Crystal 1	85.33 ± 3.4
873.11 K, Crystal 1	85.06 ± 3.4
874.11 K, Crystal 1	84.83 ± 3.4
875.11 K, Crystal 1	84.62 ± 3.4
876.11 K, Crystal 1	84.44 ± 3.4
877.11 K, Crystal 1	84.28 ± 3.4
878.11 K, Crystal 1	84.13 ± 3.4
879.11 K, Crystal 1	83.93 ± 3.4
880.11 K, Crystal 1	83.85 ± 3.4
881.11 K, Crystal 1	83.77 ± 3.4
882.11 K, Crystal 1	83.69 ± 3.4
883.11 K, Crystal 1	83.62 ± 3.4
884.11 K, Crystal 1	83.55 ± 3.4
885.11 K, Crystal 1	83.48 ± 3.4
886.11 K, Crystal 1	83.41 ± 3.4
887.11 K, Crystal 1	83.34 ± 3.4
888.11 K, Crystal 1	83.28 ± 3.4
889.11 K, Crystal 1	83.22 ± 3.4
890.11 K, Crystal 1	83.17 ± 3.4
891.11 K, Crystal 1	83.11 ± 3.4
892.11 K, Crystal 1	83.06 ± 3.3
893.11 K, Crystal 1	83.01 ± 3.3
894.11 K, Crystal 1	82.97 ± 3.3
895.11 K, Crystal 1	82.92 ± 3.3
896.11 K, Crystal 1	82.88 ± 3.3
897.11 K, Crystal 1	82.85 ± 3.3
898.11 K, Crystal 1	82.81 ± 3.3
899.11 K, Crystal 1	82.78 ± 3.3
900.11 K, Crystal 1	82.75 ± 3.3
901.11 K, Crystal 1	82.69 ± 3.3
902.11 K, Crystal 1	82.64 ± 3.3
903.11 K, Crystal 1	82.59 ± 3.3
904.11 K, Crystal 1	82.54 ± 3.3
905.11 K, Crystal 1	82.49 ± 3.3
906.11 K, Crystal 1	82.45 ± 3.3
907.11 K, Crystal 1	82.41 ± 3.3
908.11 K, Crystal 1	82.37 ± 3.3
909.11 K, Crystal 1	82.34 ± 3.3
910.11 K, Crystal 1	82.3 ± 3.3
911.11 K, Crystal 1	82.27 ± 3.3
912.11 K, Crystal 1	82.25 ± 3.3
913.11 K, Crystal 1	82.22 ± 3.3
914.11 K, Crystal 1	82.2 ± 3.3
915.11 K, Crystal 1	82.18 ± 3.3
916.11 K, Crystal 1	82.16 ± 3.3
917.11 K, Crystal 1	82.15 ± 3.3
918.11 K, Crystal 1	82.14 ± 3.3
919.11 K, Crystal 1	82.13 ± 3.3
920.11 K, Crystal 1	82.13 ± 3.3
921.11 K, Crystal 1	82.12 ± 3.3
922.11 K, Crystal 1	82.12 ± 3.3
923.11 K, Crystal 1	82.12 ± 3.3
924.11 K, Crystal 1	82.13 ± 3.3
925.11 K, Crystal 1	82.14 ± 3.3
926.11 K, Crystal 1	82.15 ± 3.3
927.11 K, Crystal 1	82.16 ± 3.3
928.11 K, Crystal 1	82.18 ± 3.3
929.11 K, Crystal 1	82.2 ± 3.3
930.11 K, Crystal 1	82.22 ± 3.3
931.11 K, Crystal 1	82.23 ± 3.3
932.11 K, Crystal 1	82.25 ± 3.3
933.11 K, Crystal 1	82.26 ± 3.3
934.11 K, Crystal 1	82.27 ± 3.3
935.11 K, Crystal 1	82.29 ± 3.3
936.11 K, Crystal 1	82.3 ± 3.3
937.11 K, Crystal 1	82.31 ± 3.3
938.11 K, Crystal 1	82.32 ± 3.3
